“And” between values parts separate entries of the source, which are not always exact repeats. Identical values can stand only once. The source made the active and inactive calls. How the calls were made is not given here.
Biological target: Phospholipase D2 (Homo sapiens) (UniProt O14939)
Test: cellular phospholipase D2 activity inhibition – cell-based (AID 743409)
Settings: cellular PLD2 isoenzyme activity, hits give high values

Chain of Phospholipase D2 (Homo sapiens) (O14939 whole entry, looked up): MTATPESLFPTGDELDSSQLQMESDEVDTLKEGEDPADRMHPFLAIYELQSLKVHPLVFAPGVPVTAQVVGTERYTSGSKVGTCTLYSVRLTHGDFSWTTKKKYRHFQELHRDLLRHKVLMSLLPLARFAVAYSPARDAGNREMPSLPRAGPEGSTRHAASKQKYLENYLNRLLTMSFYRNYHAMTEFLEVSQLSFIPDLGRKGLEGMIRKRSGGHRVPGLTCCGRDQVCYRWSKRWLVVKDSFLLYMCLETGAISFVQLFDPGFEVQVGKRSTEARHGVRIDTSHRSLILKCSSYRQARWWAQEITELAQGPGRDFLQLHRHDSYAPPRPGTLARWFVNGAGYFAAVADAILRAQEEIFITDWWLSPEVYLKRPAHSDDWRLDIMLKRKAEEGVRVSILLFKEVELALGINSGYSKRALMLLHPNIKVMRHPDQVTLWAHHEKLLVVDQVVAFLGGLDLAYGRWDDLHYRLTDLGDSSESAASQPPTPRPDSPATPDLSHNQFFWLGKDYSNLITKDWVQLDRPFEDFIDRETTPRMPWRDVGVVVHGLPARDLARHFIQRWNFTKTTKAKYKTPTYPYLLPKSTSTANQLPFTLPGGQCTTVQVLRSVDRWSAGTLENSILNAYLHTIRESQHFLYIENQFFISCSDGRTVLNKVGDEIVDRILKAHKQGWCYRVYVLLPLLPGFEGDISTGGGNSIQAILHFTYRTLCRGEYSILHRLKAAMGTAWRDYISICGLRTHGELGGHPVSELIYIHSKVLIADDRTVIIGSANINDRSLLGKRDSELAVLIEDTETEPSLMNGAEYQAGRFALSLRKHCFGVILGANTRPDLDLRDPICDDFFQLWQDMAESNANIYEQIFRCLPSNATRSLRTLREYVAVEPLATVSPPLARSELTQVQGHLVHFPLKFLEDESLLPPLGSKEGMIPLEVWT

| SMILES | inhibition (at 2 µM) | inhibition (at 20 µM) |
| --- | --- | --- |
| O=C(NCCN1CCC2(CC1)C(=O)NCN2c1cccnc1)c1ccc(F)c(F)c1 | 7% (inactive) |  |
| O=C(NCCN1CCC2(CC1)C(=O)NCN2Cc1cccnc1)c1sc2ncccc2c1-n1cccc1 | 5% (inactive) |  |
| O=C(NCCN1CCC2(CC1)NCNC2=O)c1ccc2ccccc2c1 |  | 22% (inactive) |
| O=C(NCCN1CCC2(CC1)C(=O)NCN2CC1CC1)c1ccc2ccccc2c1 |  | 100% |
| O=C(NCCN1CCC2(CC1)C(=O)NCN2c1cncc(F)c1)c1ccc2ccccc2c1 | 18% (inactive) |  |
| Cc1nc2sc(C(=O)NCCN3CCC4(CC3)C(=O)NCN4Cc3cccnc3)c(N)c2c(C)c1C | 8% (inactive) |  |
| O=C(NCCN1CCC2(CC1)C(=O)NCN2Cc1cccnc1)c1ccc(Cl)c(Cl)c1 | 63% (inactive) |  |
| O=C(NCCN1CCC2(CC1)C(=O)NCN2c1cncc(F)c1)c1ccc(F)c(F)c1 | 0% (inactive) |  |
| O=C(NCCN1CCC2(CC1)C(=O)NCN2Cc1cccnc1)c1c(F)ccc(Cl)c1F | 18% (inactive) |  |
| O=C(NCCN1C=CC2(CC1)C(=O)NCN2Cc1cccnc1)c1cccc2nsnc12 (centres undefined) | 4% (inactive) |  |
| O=C(NCCN1CCC2(CC1)C(=O)NCN2Cc1cccnc1)c1ccc2ccccc2c1 | 80% | 100% |
| O=C(NCCN1CCC2(CC1)C(=O)NCN2Cc1cccnc1)c1ccc(F)cc1C(F)(F)F | 0% (inactive) |  |
| O=C(NCCN1CCC2(CC1)C(=O)NCN2Cc1cccnc1)c1ccc(SC(F)(F)F)cc1 | 8% (inactive) |  |
| Cc1cc(N2CNC(=O)C23CCN(CCNC(=O)c2ccc4ccccc4c2)CC3)ccn1 | 0% (inactive) |  |
| O=C(NCCN1CCC2(CC1)C(=O)NCN2Cc1cccnc1)c1ccc(F)cc1F | 0% (inactive) |  |
| O=C(NCCN1CCC2(CC1)C(=O)NCN2c1cncc(F)c1)c1ccc(F)cc1 | 3% (inactive) |  |
| Cn1c(C(=O)NCCN2CCC3(CC2)C(=O)NCN3Cc2cccnc2)cc2ccccc21 | 14% (inactive) |  |
| O=C(NCCN1CCC2(CC1)C(=O)NCN2c1cccnc1)c1ccc2ccccc2c1 | 0% (inactive) |  |
| O=C(NCCN1CCC2(CC1)C(=O)NCN2Cc1cccnc1)c1cccc(C(F)(F)F)c1 | 0% (inactive) |  |
| O=C(NCCN1CCC2(CC1)C(=O)NCN2Cc1cccnc1)c1ccc(Cl)cc1F | 18% (inactive) |  |
| O=C(NCCN1CCC2(CC1)C(=O)NCN2Cc1cccnc1)[C@@H]1C[C@H]1c1ccccc1 | 20% (inactive) |  |
| O=C(NCCN1CCC2(CC1)C(=O)NCN2Cc1cccnc1)c1cccs1 | 0% |  |
| O=C(NCCN1CCC2(CC1)C(=O)NCN2Cc1cccnc1)c1ccc(Br)cc1 | 48% (inactive) |  |
| COc1cccc(C(=O)N2CNC(=O)C23CCN(CCNC(=O)c2ccc4ccccc4c2)CC3)c1 |  | 85% |
| O=C(NCCN1CCC2(CC1)C(=O)NCN2Cc1cccnc1)c1ccc2cc(F)ccc2c1 | 36% (inactive) |  |
| O=C(NCCN1CCC2(CC1)C(=O)NCN2c1ccnc(F)c1)c1ccc2ccccc2c1 | 15% (inactive) |  |

| SMILES | inhibition (at 2 µM) | inhibition (at 20 µM) |
| --- | --- | --- |
| O=C(NCCN1CCC2(CC1)C(=O)NCN2c1cncc(F)c1)c1ccc(Br)cc1 | 15% (inactive) |  |
| O=C(NCCN1CCC2(CC1)C(=O)NCN2Cc1cccnc1)c1ccnc2ccccc12 | 0% (inactive) |  |
| COc1cc(C(=O)NCCN2CCC3(CC2)C(=O)NCN3Cc2cccnc2)cc(OC)c1OC | 15% (inactive) |  |
| O=C(NCCN1CCC2(CC1)C(=O)NCN2Cc1ccccc1)c1ccc2ccccc2c1 |  | 99% |
| O=C(NCCN1CCC2(CC1)C(=O)NCN2Cc1ccncc1)c1ccc2ccccc2c1 |  | 100% |
| Cn1cc(C(=O)NCCN2CCC3(CC2)C(=O)NCN3Cc2cccnc2)c2ccccc21 | 31% (inactive) |  |
| O=C(NCCN1CCC2(CC1)C(=O)NCN2Cc1cccc2ccccc12)c1ccc2ccccc2c1 |  | 100% |
| O=C(NCCN1CCC2(CC1)C(=O)NCN2Cc1cccnc1)c1ccc2c(c1)C(=O)NC2=O | 0% (inactive) |  |
| O=C(NCCN1CCC2(CC1)C(=O)NCN2c1cccnc1)c1ccc(F)cc1 | 2% (inactive) |  |
| O=C(NCCN1CCC2(CC1)C(=O)NCN2c1cncc(F)c1)c1cc2cc(F)ccc2[nH]1 | 15% (inactive) |  |
| O=C(NCCN1CCC2(CC1)C(=O)NCN2c1ccnc(Cl)c1)c1ccc2ccccc2c1 | 11% (inactive) |  |
| O=C(NCCN1CCC2(CC1)C(=O)NCN2Cc1cccnc1)c1c(Cl)cncc1Cl | 3% (inactive) |  |
| O=C(NCCN1CCC2(CC1)C(=O)NCN2Cc1cccnc1)c1nccc2ccccc12 | 32% (inactive) |  |
| O=C(NCCN1CCC2(CC1)C(=O)NCN2C(=O)c1ccccc1)c1ccc2ccccc2c1 |  | 82% |
| O=C(NCCN1CCC2(CC1)C(=O)NCN2Cc1cccnc1)c1ccc2ccccc2c1Br | 61% |  |
| O=C(NCCN1CCC2(CC1)C(=O)NCN2Cc1ccccc1F)c1ccc2ccccc2c1 |  | 65% and 100% |
| O=C(NCCN1CCC2(CC1)C(=O)NCN2Cc1cccnc1)c1cccc2cccnc12 | 42% (inactive) |  |
| Cc1cc(C)c2cc(C(=O)NCCN3CCC4(CC3)C(=O)NCN4Cc3cccnc3)[nH]c2c1 | 35% (inactive) |  |
| O=C(NCCN1CCC2(CC1)C(=O)NCN2Cc1cccnc1)c1cc(F)cc(F)c1 | 4% (inactive) |  |
| O=C(NCCN1CCC2(CC1)C(=O)NCN2Cc1ccc(Cl)cc1)c1ccc2ccccc2c1 |  | 96% |
| O=C(NCCN1CCC2(CC1)C(=O)NCN2Cc1ccccn1)c1ccc2ccccc2c1 |  | 100% |
| O=C(NCCN1CCC2(CC1)C(=O)NCN2C(=O)C1CC1)c1ccc2ccccc2c1 |  | 100% |
| O=C(NCCN1CCC2(CC1)C(=O)NCN2Cc1cccnc1)c1cc2ccccc2[nH]1 | 100% |  |
| O=C(NCCN1CCC2(CC1)C(=O)NCN2Cc1cccnc1)c1ccc2ccccc2n1 | 31% (inactive) |  |
| O=C(NCCN1CCC2(CC1)C(=O)NCN2Cc1cccc(OC(F)(F)F)c1)c1ccc2ccccc2c1 |  | 46% (inactive) |
| O=C(NCCN1CCC2(CC1)C(=O)NCN2c1ccc(C(F)(F)F)nc1)c1ccc2ccccc2c1 | 4% (inactive) |  |

| SMILES | inhibition (at 2 µM) | inhibition (at 20 µM) |
| --- | --- | --- |
| O=C(NCCN1CCC2(CC1)C(=O)NCN2Cc1cccnc1)c1cc2cccnc2[nH]1 | 19% (inactive) |  |
| O=C(NCCN1CCC2(CC1)C(=O)NCN2Cc1cccnc1)c1ccc(Cl)cc1Cl | 0% (inactive) |  |
| O=C(NCCN1CCC2(CC1)C(=O)NCN2Cc1cccnc1)c1c[nH]c2ccccc12 | 23% (inactive) |  |
| O=C(NCCN1CCC2(CC1)C(=O)NCN2Cc1cccnc1)c1nc(-c2ccc(F)cc2)no1 | 17% (inactive) |  |
| O=C(NCCN1CCC2(CC1)C(=O)NCN2Cc1cccnc1)c1ccc(C(F)(F)F)cc1 | 5% (inactive) |  |
| O=C(NCCN1CCC2(CC1)C(=O)NCN2c1cccnc1)c1cc(F)c(F)c(F)c1 | 0% (inactive) |  |
| O=C(NCCN1CCC2(CC1)C(=O)NCN2Cc1cccnc1)c1cc2ccccc2o1 | 73% |  |
| O=C(NCCN1CCC2(CC1)C(=O)NCN2c1cccnc1)c1ccc(Br)cc1 | 0% (inactive) |  |
| O=C(NCCN1CCC2(CC1)C(=O)NCN2Cc1cccnc1)c1cc2cc(F)ccc2[nH]1 | 100% |  |
| O=C(NCCN1CCC2(CC1)C(=O)NCN2Cc1cccnc1)c1cc(F)c(F)c(F)c1 | 10% (inactive) |  |
| O=C(NCCN1CCC2(CC1)C(=O)NCN2c1cncc(F)c1)c1cc(F)c(F)c(F)c1 | 2% (inactive) |  |
| O=C(NCCN1CCC2(CC1)C(=O)NCN2Cc1cccc(Cl)c1)c1ccc2ccccc2c1 |  | 100% |
| O=C(NCCN1CCC2(CC1)C(=O)NCN2Cc1cccnc1)c1ccc(F)cc1Cl | 0% (inactive) |  |
| O=C(NCCN1CCC2(CC1)C(=O)NCN2Cc1ccccc1Br)c1ccc2ccccc2c1 |  | 100% |
| O=C(NCCN1CCC2(CC1)C(=O)NCN2Cc1cccnc1)c1ccc(F)c(F)c1 | 22% (inactive) |  |
| O=C(NCCN1CCC2(CC1)C(=O)NCN2c1cccnc1)c1cc2cc(F)ccc2[nH]1 | 12% (inactive) |  |
| O=C(NCCN1CCC2(CC1)C(=O)NCN2C(=O)c1cccc(F)c1)c1ccc2ccccc2c1 |  | 84% |
| O=C(NCCN1CCC2(CC1)C(=O)NCN2Cc1cccnc1)c1ccccc1F | 0% (inactive) |  |
| Cc1cc(Br)cnc1C(=O)NCCN1CCC2(CC1)C(=O)NCN2Cc1cccnc1 | 1% (inactive) |  |
| O=C(NCCN1CCC2(CC1)C(=O)NCN2Cc1cccnc1)c1cccc(F)c1 | 14% (inactive) |  |
| O=C(NCCN1CCC2(CC1)C(=O)NCN2C(=O)C1CCC1)c1ccc2ccccc2c1 |  | 100% |
| O=C(NCCN1CCC2(CC1)C(=O)NCN2c1cncc(Br)c1)c1ccc2ccccc2c1 | 26% (inactive) |  |
| O=C(NCCN1CCC2(CC1)C(=O)NCN2Cc1cccnc1)c1ccc(F)cc1 | 11% (inactive) |  |
| O=C(NCCN1CCC2(CC1)C(=O)NCN2Cc1cccnc1)c1cccc(Cl)c1 | 21% (inactive) |  |
| O=C(NCCN1CCC2(CC1)C(=O)NCN2Cc1ccccc1Cl)c1ccc2ccccc2c1 |  | 100% |
| Cc1ccc(S(=O)(=O)NCCN2CCC3(CC2)C(=O)NCN3Cc2cccnc2)cc1 | 10% (inactive) |  |
